Among the data in patent publication US9073853B2, “Cycloalkane carboxylic acid derivatives as CXCR3 receptor antagonists” (Sanofi, priority 2011, dated 2015) are IC50 values, retold here.

Structures are written as SMILES.

Sequence of human CXCR3-A receptor (P49682 whole entry): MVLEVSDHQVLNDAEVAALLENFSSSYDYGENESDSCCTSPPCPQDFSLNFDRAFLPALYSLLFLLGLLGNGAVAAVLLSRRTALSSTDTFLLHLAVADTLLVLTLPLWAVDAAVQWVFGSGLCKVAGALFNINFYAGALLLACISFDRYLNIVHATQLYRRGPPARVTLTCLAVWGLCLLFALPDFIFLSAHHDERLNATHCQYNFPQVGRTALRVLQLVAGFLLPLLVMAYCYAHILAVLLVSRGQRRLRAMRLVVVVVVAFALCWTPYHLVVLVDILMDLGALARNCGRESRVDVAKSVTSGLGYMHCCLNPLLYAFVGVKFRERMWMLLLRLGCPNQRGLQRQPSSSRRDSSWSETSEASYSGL

For this assay, the target named is human CXCR3-A receptor (Homo sapiens (Human), UniProt P49682). The assay is described as follows: 125I-CXCL10 competition radioligand binding assay. As to conditions: displacement of 125I-CXCL10 from membranes of CHO cells expressing human recombinant CXCR3-A. The procedure:
IC50 values were determined for the test compounds and used to explore the structure-activity relationships (SAR). […] This cell line was registered in Sanofi-Aventis cell line bank. […] Cell suspension was diluted with PBS and cells were collected with centrifugation at 230 g for 10 minutes at 10° C. with a Juan centrifuge. […] The supernatant was carefully collected and centrifuged at 100,000×g for 60 min at 4° with a Beckman Avanti J30 centrifuge. […] Protein concentration was determined with Bio-Rad protein assay (Cat No 500-0006). Membrane aliquots were stored at -80° C. […] The composition of the binding assay buffer was determined in a course of detailed optimization procedure. […] Binding reaction was initiated by adding of membranes (10-20 μg proteins, approximately 5×10^5 cell equivalents) to the reaction mixture. After 60 minutes of incubation at 25° C. the reaction was terminated by rapid filtration over GF/B glass fiber filters that were pre-soaked with 0.5% polyethyleneimine (Fluka Analytical, P3143) for 1 hour, using a Skatron cell harvester device. Filters then were washed with 8 ml of ice-cold wash buffer (modified binding buffer in which BSA was omitted and the concentration of NaCl was adjusted to 500 mM concentration). The radioactivity retained on the filters was measured by a Wizard 1470 Automatic Gamma counter. Test compounds were dissolved prior to the binding assay at a concentration of 10 mM in DMSO. Stock solutions were stored at -20° C. for not longer than 3 months. […] Before adding these solutions of test compound to the binding reaction mixture, an intermediate dilution procedure was applied, in which 30 μL of each solution sample was transferred into a dilution tube containing 970 μL of binding assay buffer. […] The IC50 values and Hill slopes for competition binding data were obtained using nonlinear four-parametric curve fitting method.
A general note: Loss of bound radioactivity is the signal in a displacement assay; it reports binding, not function.
One may read the IC50 as the midpoint of a concentration-inhibition curve. As for `CCc1ccc(C(C)N(Cc2ccc(OCCN3C(=O)CCC3=O)c(OC)c2)C[C@H]2CC[C@H](C(=O)O)CC2)cc1` (stereo partly drawn) [Example 81, trans-4-({{4-[2-(2,5-Dioxo-pyrrolidin-1-yl)-ethoxy]-3-methoxy-benzyl}-[1-(4-ethyl-phenyl)-ethyl]-amino}-methyl)-cyclohexanecarboxylic acid], the concentration for half-maximal inhibition (IC50) was determined as 245 nM.

As for `O=C1CCC(=O)N1CCOc1ccc(CN(C[C@H]2CC[C@H](C(=O)O)CC2)C2CCc3cc(F)c(Cl)cc32)cc1F` (stereo partly drawn) [Example 97, trans-4-[((6-Chloro-5-fluoro-indan-1-yl)-{4-[2-(2,5-dioxo-pyrrolidin-1-yl)-ethoxy]-3-fluoro-benzyl}-amino)-methyl]-cyclohexanecarboxylic acid], the IC50 stood at 4640 nM.

With `CCC(c1ccc(Cl)cc1)N(Cc1ccc(OCCN2C(=O)CCC2=O)c(C)c1)C[C@H]1CC[C@H](C(=O)O)CC1` (stereo partly drawn) [Example 65, trans-4-[([1-(4-Chloro-phenyl)-propyl]-{4-[2-(2,5-dioxo-pyrrolidin-1-yl)-ethoxy]-3-methyl-benzyl}-amino)-methyl]-cyclohexanecarboxylic acid], the IC50 stood at 121 nM.

For the compound `COc1cc(CN(CC2CCCC(C(=O)O)C2)C(C)c2ccc3c(c2)CCO3)ccc1OCCN1C(=O)CCC1=O` (stereo not shown) [Example 41, 3-[([1-(2,3-Dihydro-benzofuran-5-yl)-ethyl]-{4-[2-(2,5-dioxo-pyrrolidin-1-yl)-ethoxy]-3-methoxy-benzyl}-amino)-methyl]-cyclohexanecarboxylic acid], the IC50 worked out at 131 nM.

On to `CCc1cc(CN(C[C@H]2CC[C@H](C(=O)O)CC2)C2CCc3cc(F)c(Cl)cc32)ccc1OCCN1C(=O)CCC1=O` (stereo partly drawn) [Example 95, trans-4-[((6-Chloro-5-fluoro-indan-1-yl)-{4-[2-(2,5-dioxo-pyrrolidin-1-yl)-ethoxy]-3-ethyl-benzyl}-amino)-methyl]-cyclohexanecarboxylic acid], for which the IC50 was 4040 nM.

As to `Cc1cc(CN(C[C@H]2CC[C@H](C(=O)O)CC2)[C@@H](C)c2ccc(Cl)cc2)ccc1OCCn1c(=O)ccn(C)c1=O` [Example 58, trans-4-[([(S)-1-(4-Chloro-phenyl)-ethyl]-{3-methyl-4-[2-(3-methyl-2,6-dioxo-3,6-dihydro-2H-pyrimidin-1-yl)-ethoxy]-benzyl}-amino)-methyl]-cyclohexanecarboxylic acid], the IC50 came out at 169 nM.

For `COc1cc(CN(C[C@H]2CC[C@H](C(=O)O)CC2)C(C)c2ccc3c(c2)CCO3)ccc1OCCN1C(=O)COC1=O` (stereo partly drawn) [Example 19, trans-4-[([1-(2,3-Dihydro-benzofuran-5-yl)-ethyl]-{4-[2-(2,4-dioxo-oxazolidin-3-yl)-ethoxy]-3-methoxy-benzyl}-amino)-methyl]-cyclohexanecarboxylic acid], the IC50 stood at 55 nM.

With `CCC(c1ccc2c(c1)CCO2)N(Cc1ccc(CCCN2C(=O)CCC2=O)c(OC)c1)C[C@H]1CC[C@H](C(=O)O)CC1` (stereo partly drawn) [Example 66, trans-4-[([1-(2,3-Dihydro-benzofuran-5-yl)-propyl]-{4-[3-(2,5-dioxo-pyrrolidin-1-yl)-propyl]-3-methoxy-benzyl}-amino)-methyl]-cyclohexanecarboxylic acid], the IC50 came out at 85 nM.

Take `COc1cc(CN(C[C@@H]2CC[C@H](C(=O)O)C2)[C@H](C)c2ccc3c(c2)CCO3)ccc1OCCN1C(=O)CCC1=O` [Example 108, (1S,3R)-3-[([(R)-1-(2,3-Dihydro-benzofuran-5-yl)-ethyl]-{4-[2-(2,5-dioxo-pyrrolidin-1-yl)-ethoxy]-3-methoxy-benzyl}-amino)-methyl]-cyclopentanecarboxylic acid]: the IC50 came out at 190 nM.

Take `CCOC(=O)[C@H]1CC[C@H](CN(Cc2ccc(OCCN3C(=O)CCC3=O)c(OC)c2)C(C)c2ccc3c(c2)CCO3)CC1` (relative stereo) [Example 1.1, trans-4-[([1-(2,3-Dihydro-benzofuran-5-yl)-ethyl]-{4-[2-(2,5-dioxo-pyrrolidin-1-yl)-ethoxy]-3-methoxy-benzyl}-amino)-methyl]-cyclohexanecarboxylic acid ethyl ester]: the IC50 turned out to be 177 nM.

Turning to `Cc1cc(CN(C[C@H]2CC[C@H](C(=O)O)CC2)[C@H]2CCc3cc(Cl)ccc32)ccc1OCCN1C(=O)CCC1=O` [Example 30, trans-4-[(((S)-5-Chloro-indan-1-yl)-{4-[2-(2,5-dioxo-pyrrolidin-1-yl)-ethoxy]-3-methyl-benzyl}-amino)-methyl]-cyclohexanecarboxylic acid], the concentration for half-maximal inhibition (IC50) was found to be 53 nM.

Take `CCC(c1ccc(Cl)cc1)N(Cc1ccc(OCCn2c(=O)ccn(C)c2=O)c(C)c1)C[C@H]1CC[C@H](C(=O)O)CC1` (stereo partly drawn) [Example 64, trans-4-[([1-(4-Chloro-phenyl)-propyl]-{3-methyl-4-[2-(3-methyl-2,6-dioxo-3,6-dihydro-2H-pyrimidin-1-yl)-ethoxy]-benzyl}-amino)-methyl]-cyclohexanecarboxylic acid]: the IC50 was 487 nM.

As to `O=C1CCC(=O)N1CCOc1ccc(CN(C[C@H]2CC[C@H](C(=O)O)CC2)[C@H]2CCc3cc(Cl)ccc32)cc1F` [Example 72, trans-4-[(((S)-5-Chloro-indan-1-yl)-{4-[2-(2,5-dioxo-pyrrolidin-1-yl)-ethoxy]-3-fluoro-benzyl}-amino)-methyl]-cyclohexanecarboxylic acid], the concentration for half-maximal inhibition (IC50) is 825 nM.

`CCC(c1ccc(Cl)cc1)N(Cc1ccc(OCCN2C(=O)CCC2=O)c(C)c1)C[C@@H]1[C@@H](C(=O)O)C1(C)C` (stereo partly drawn) [Example 118, (1R,3R)-3-[([1-(4-Chloro-phenyl)-propyl]-{4-[2-(2,5-dioxo-pyrrolidin-1-yl)-ethoxy]-3-methyl-benzyl}-amino)-methyl]-2,2-dimethyl-cyclopropanecarboxylic acid]: the IC50 came out at 190 nM.

For the compound `COc1cc(CN(C[C@H]2CC[C@H](C(=O)O)CC2)C2CCc3cc(F)c(Cl)cc32)ccc1OCCN1C(=O)CCC1=O` (stereo partly drawn) [Example 94, trans-4-[((6-Chloro-5-fluoro-indan-1-yl)-{4-[2-(2,5-dioxo-pyrrolidin-1-yl)-ethoxy]-3-methoxy-benzyl}-amino)-methyl]-cyclohexanecarboxylic acid], the IC50 is 630 nM.

As to `COc1cc(CN(C(C)c2ccc3c(c2)CCO3)[C@H]2C[C@@H](C(=O)O)C2)ccc1OCCn1c(=O)ccn(C)c1=O` (stereo partly drawn) [Example 121, cis-3-([1-(2,3-Dihydro-benzofuran-5-yl)-ethyl]-{3-methoxy-4-[2-(3-methyl-2,6-dioxo-3,6-dihydro-2H-pyrimidin-1-yl)-ethoxy]-benzyl}-amino)-cyclobutanecarboxylic acid], the IC50 turned out to be 152 nM.

Consider `Cc1cc(CN(C(C)c2ccc(Cl)c(Cl)c2)[C@H]2C[C@@H](C(=O)O)C2)ccc1OCCN1C(=O)CCC1=O` (stereo partly drawn) [Example 138, cis-3-([1-(3,4-Dichloro-phenyl)-ethyl]-{4-[2-(2,5-dioxo-pyrrolidin-1-yl)-ethoxy]-3-methyl-benzyl}-amino)-cyclobutanecarboxylic acid], for which the IC50 was determined as 670 nM.

As for `Cc1cc(CN(C[C@H]2CC[C@@H](C(=O)O)CC2)[C@@H](C)c2ccc(Cl)cc2)ccc1OCCN1C(=O)CCC1=O` [Example 8, cis-4-[([(S)-1-(4-Chloro-phenyl)-ethyl]-{4-[2-(2,5-dioxo-pyrrolidin-1-yl)-ethoxy]-3-methyl-benzyl}-amino)-methyl]-cyclohexanecarboxylic acid], the concentration for half-maximal inhibition (IC50) was found to be 3810 nM.

Take `COc1cc(CN(C[C@@H]2CC[C@@H](C(=O)O)C2)[C@H](C)c2ccc3c(c2)CCO3)ccc1OCCN1C(=O)CCC1=O` [Example 104, (1R,3R)-3-[([(R)-1-(2,3-Dihydro-benzofuran-5-yl)-ethyl]-{4-[2-(2,5-dioxo-pyrrolidin-1-yl)-ethoxy]-3-methoxy-benzyl}-amino)-methyl]-cyclopentanecarboxylic acid]: the half-maximal inhibitory concentration (IC50) was 15 nM.

Turning to `COc1cc(CN(C[C@H]2CC[C@@H](C(=O)O)C2)[C@H](C)c2ccc3c(c2)CCO3)ccc1OCCN1C(=O)CCC1=O` [Example 103, (1R,3S)-3-[([(R)-1-(2,3-Dihydro-benzofuran-5-yl)-ethyl]-{4-[2-(2,5-dioxo-pyrrolidin-1-yl)-ethoxy]-3-methoxy-benzyl}-amino)-methyl]-cyclopentanecarboxylic acid], the IC50 came out at 260 nM.

As for `COc1cc(CN(C[C@H]2CC[C@H](C(=O)O)CC2)[C@@H](C)c2ccc(Cl)cc2)ccc1SCCN1C(=O)CCC1=O` [Example 87, trans-4-[([(S)-1-(4-Chloro-phenyl)-ethyl]-{4-[2-(2,5-dioxo-pyrrolidin-1-yl)-ethylsulfanyl]-3-methoxy-benzyl}-amino)-methyl]-cyclohexanecarboxylic acid], the IC50 came to 19 nM.

As for `CCOC(=O)[C@H]1C[C@H]1CN(Cc1ccc(OCCN2C(=O)CCC2=O)c(OC)c1)C(C)c1ccc2c(c1)CCO2` (stereo partly drawn) [Example 113, (1S,2R)-2-[([1-(2,3-Dihydro-benzofuran-5-yl)-ethyl]-{4-[2-(2,5-dioxo-pyrrolidin-1-yl)-ethoxy]-3-methoxy-benzyl}-amino)-methyl]-cyclopropanecarboxylic acid ethyl ester], the IC50 is 82 nM.
